Measured values reported in US20140088056A1, “CARDIAC GLYCOSIDES ARE POTENT INHIBITORS OF INTERFERON-BETA GENE EXPRESSION” (priority 2010, published 2014).

Columns and labels:
virus = test: Virus replication; type: cell-based
Hela and MG63 cells = test: RT-PCR of IFNβ gene induction in Hela and MG63 cells; type: cell-based, human
mice = test: LPS induced lethality in mice; type: in vivo; conditions: 15 μg/mouse i.p. 30 min before LPS 80 mg/kg i.p.; 4 days
293T cells [1] = test: CellTiter-Blue and CellTiter-Glo viability assays; type: cell-based, human; conditions: 1 nM to 10 μM, 8 hours
Procedure: (§1) The cells were also exposed to 0.1% Triton X-100 for 1 hr before the viability assay as a control (FIG. 16E). Data represent mean values±s.d. (n=3). […] Cells were harvested and washed, then stained with Allophycocyanin (APC) conjugated Annexin V and 7-AAD for 15 minutes and subjected to flow cytometry analysis. The number in each graph is the percentile of Annexin V or 7-AAD positive populations. […] Total protein lysates were prepared and separated on SDS-PAGE for Western blot analysis of PARP1, cleaved PARP1, cleaved Caspase3, LC3B, ATP1a1, and beta-actin expression.
8 hours later, 20 μl of the CellTiter-Blue reagent (Promega) was added to each well and incubated for two more hours at 37° C. Fluorescence was recorded from 560 nm excitation/590 nm emission with a Spectramax Plus 384 plate reader. For CellTiter-Glo Luminescent viability assay, […] reagent (Promega) was added to each well and mixed, and incubated for 10 minutes at room temperature. Luminescence was measured with an Analyst AD plate reader.

[2] = test system: PRDII element (NFkB binding site); type: cell-based, human; conditions: bufalin and TNF 24 hrs
[3] = test system: endogenous TNF target genes; test: RT-PCR of TNF induced gene expression in 293T cells; type: cell-based, human; conditions: 6 hrs
[4] = test system: PRDIV element of the IFNβ promoter; type: cell-based, human; conditions: absence of virus infection
[5] = test system: IFNβ and CXCL10 gene expression; test: RT-PCR of dsRNA (poly I:C) and dsDNA (poly dA:dT) induced gene expression in 293T cells; type: cell-based, human; conditions: 1 uM, 6 hrs
[6] = test system: PRDII element of the IFNβ promoter; type: cell-based, human; conditions: 1 uM, compared with no drug treatment
[7] = test system: virus inducible genes in 293T cells; test: Microarray and RT-PCR of gene expression in 293T cells treated with bufalin and/or SeV; type: cell-based, human
293T cells [8] = test: Western blot analysis of apoptosis and autophagy; type: cell-based, human; conditions: 8 hours, bufalin 1 nM to 10 μM, staurosporine 4 μM
Procedure: as §1
Apoptosis and autophagy were also analyzed by Western blots. […] Total protein lysates were prepared and separated on SDS-PAGE for Western blot analysis of PARP1, cleaved PARP1, cleaved Caspase3, LC3B, ATP1a1, and beta-actin expression.

293T cells [9] = test: Flow cytometry analysis of apoptosis (Annexin V / 7-AAD); type: cell-based, human; conditions: bufalin 1 μM 8 hours; staurosporine 4 μM 4 hours
Procedure: as §1
Treated cells and untreated control cells were harvested and washed with PBS, and stained with APC conjugated Annexin V and 7-AAD (both from BD Biosciences) in Annexin V binding buffer (10 mM HEPES, pH 7.4, 140 mM NaCl, 2.5 mM CaCl2) for 15 minutes at room temperature, and then subjected to flow cytometry analysis on a FACSCalibur (BD Biosciences).
Cells were harvested and washed, then stained with Allophycocyanin (APC) conjugated Annexin V and 7-AAD for 15 minutes and subjected to flow cytometry analysis. […] 11 for sturosporine.

[10] = test system: cytoplasmic RNA polymerase III; test: Re-transfection of RNA from dsDNA transfected, bufalin treated 293T cells; type: cell-based, human
Procedure: Total RNA from these cells were extracted and re-transfected into fresh 293T cells (8 ug for 2 million cells) for 6 hrs, the induction of IFNβ and Cxcl10 genes from these samples were analyzed by RT-PCR.
Furthermore, RIG-I can also be the target in the dsDNA activation pathway. […] This was achieved through a critical sensor: RNA polymerase III, which transcribes 5′-ppp bearing “panhandle” RNA from the dsDNA template, these nascent RNAs then activated the IFNb expression through the RIG-1-MAVS pathway. See, for example, Ablasser, A. et al. RIG-I-dependent sensing of poly(dA:dT) through the induction of an RNA polymerase III-transcribed RNA intermediate. Nat Immunol 10, 1065-72 (2009) and Chiu, Y. H., Macmillan, J. B. & Chen, Z. J. RNA polymerase III detects cytosolic DNA and induces type I interferons through the RIG-I pathway. Cell 138, 576-91 (2009), content of both of which is herein incorporated by reference.

patients = conditions: huachansu, Meng et al.; cited from earlier work
IFN signaling = test: IFN induced gene expression in Hela cells; type: cell-based, human; conditions: 1 μM
MAP kinase P42/p44 = test: EGF induced phosphorylation of MAP kinase in 293T cells; type: cell-based, human; conditions: 1 μM

In the case of `C[C@]12CC[C@H](O)C[C@H]1CC[C@@H]1[C@H]2CC[C@]2(C)[C@@H](c3ccc(=O)oc3)CC[C@]12O` [Bufalin], the virus replication (virus) is reported as “inhibited”, the “poly I:C and poly dA:dT induced IFNβ expression in Hela and Mg63 cells” value (Hela and MG63 cells) is reported as “strongly inhibited” and the “virus induced IFNβ expression in Hela and MG63 cells” value (Hela and MG63 cells) is reported as “less than observed with 293T and Namalwa cells”. For the same compound, the “lethality induced by a high dose of LPS” value (mice) was “partially reduce”, the cell viability (293T cells [1]) was “did not severely impair” and the “decrease of TNF induced luciferase gene expression” value [2] was 40%. For the same compound, the “expression of endogenous TNF target genes” value [3] was “significantly inhibited”, the “activity of PRDIV reporter” value [4] was “weakly induced” and the “IFNβ and CXCL10 gene expression in response to poly I:C and poly dA:dT” value [5] was “strongly inhibited”. For the same compound, the “repression of viral induction of luciferase expression, PRDII reporter” value [6] was > 86%, the “IFNβ induction in cells preinfected with virus” value ([7]; SeV 1.5 hours, then 1 μM for 6 hours) was “strongly inhibits” and the “induction of virus-induced genes (IFNβ, IL-8, IFIT1-3, ISG15, OASL, CXCL10, CCL5)” value ([7]; bufalin plus SeV, 8 hrs) was “completely blocked”. The “cleavage products of PARP1 and Caspase3 (indication of apoptosis)” value (293T cells [8]) was “not observed”, the “induction of LC3B-II (marker of autophagy)” value (293T cells [8]; BFA 100 nM) was “not observed” and the “Percentile of Annexin V or 7-AAD positive populations” value (293T cells [9]) was 1.95. The “activity of cytoplasmic RNA polymerase III” value [10] was “inhibited”, the “well tolerated concentration of bufalin in patients” value (patients) was “up to 9 nM” and the “IFN induction of Stat1 and ISG15 genes” value (IFN signaling) was “no effect”. For the same compound, the “IFN induced expression of Cxcl10 and RIG-I genes” value (IFN signaling; IFN 1000 U/ml, 6 hours) was “weakly inhibited” and the “EGF induced phosphorylation of MAP kinase P42/p44” value (MAP kinase P42/p44) was “no effect”.
